Source: US20080021030A1, “Substituted Pyrazoles As Ppar Agonists” (priority 2003, published 2008)

Columns and labels:
Assay in all cases: Transient transfection (transactivation) assay in CV-1 cells, GAL4-PPAR LBD chimera, SPAP reporter
Type in all cases: cell-based
[1] = molecular target: T1, hPPAR alpha (Homo sapiens, UniProt Q07869); details: read-out: EC50 μM HPPARα
T1 construct: expressed in transfected cells; host or cells: CV-1 cells
T1 sequence (Q07869 239-466 limits assumed): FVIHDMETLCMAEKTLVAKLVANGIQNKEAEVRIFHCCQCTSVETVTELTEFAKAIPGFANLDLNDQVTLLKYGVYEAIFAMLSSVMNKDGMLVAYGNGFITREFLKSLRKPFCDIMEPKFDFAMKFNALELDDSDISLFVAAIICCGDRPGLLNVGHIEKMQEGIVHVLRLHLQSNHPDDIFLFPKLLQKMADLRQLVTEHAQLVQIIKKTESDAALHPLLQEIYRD
Source text: (§1) Compounds were screened for functional potency in transient transfection assays in CV-1 cells for their ability to activate the PPAR subtypes (transactivation assay). A previously established chimeric receptor system was utilized to allow comparison of the relative transcriptional activity of the receptor subtypes on the same target gene and to prevent endogenous receptor activation from complicating the interpretation of results. See, for example, Lehmann, J. M.; Moore, L. B.; Smith-Oliver, T. A.; Wilkison, W. O.; Willson, T. M.; Kliewer, S. A., An antidiabetic thiazolidinedione is a high affinity ligand for peroxisome proliferator-activated receptor gamma (PPARgamma), J. Biol. Chem., 270, 12953-6 (1995). The ligand binding domains for murine and human PPAR alpha, PPAR gamma, and PPAR delta were each fused to the yeast transcription factor GAL4 DNA binding domain. CV-1 cells were transiently transfected with expression vectors for the respective PPAR chimera along with a reporter construct containing five copies of the GAL4 DNA binding site driving expression of secreted placental alkaline phosphatase (SPAP) and beta-galactosidase. After 16 h, the medium was exchanged to DME medium supplemented with 10% delipidated fetal calf serum and the test compound at the appropriate concentration. After an additional 24 h, cell extracts were prepared and assayed for alkaline phosphatase and β-galactosidase activity. Alkaline phosphatase activity was corrected for transfection efficiency using the beta-galactosidase activity as an internal standard (see, for example, Kliewer, S. A., et. al. Cell 83, 813-819 (1995)). Rosiglitazone (BRL 49653) was used as a positive control in the hPPAR gamma assay. The positive control in the hPPAR alpha assays was 2-4-[2-(3-[4-fluorophenyl]-1-heptylureido)ethyl]-phenoxy-(2-methyl propionic acid (WO 97/36579). The positive control for PPAR delta assays was 2-{2-methyl-4-[({4-methyl-2-{trifluoromethyl)phenyl]-1,3-thiazol-5-yl}methyl)sulfanyl]phenoxy}acetic acid (WO 01/00603). The positive control was (5-{4-[2-(Methyl-pyridin-2-yl-amino)-ethoxy]-benzyl}-thiazolidine-2,4-dione (J. Med. Chem. 1994, 37(23), 3977), for PPAR gamma.
(§2) Activities in three hPPAR subtypes are reported in the table and are expressed in micromolar.

[2] = molecular target: T2, hPPAR delta (Homo sapiens, UniProt Q03181); details: read-out: EC50 μM HPPARδ
T2 construct: expressed in transfected cells; host or cells: CV-1 cells
T2 sequence (Q03181 211-439 limits assumed): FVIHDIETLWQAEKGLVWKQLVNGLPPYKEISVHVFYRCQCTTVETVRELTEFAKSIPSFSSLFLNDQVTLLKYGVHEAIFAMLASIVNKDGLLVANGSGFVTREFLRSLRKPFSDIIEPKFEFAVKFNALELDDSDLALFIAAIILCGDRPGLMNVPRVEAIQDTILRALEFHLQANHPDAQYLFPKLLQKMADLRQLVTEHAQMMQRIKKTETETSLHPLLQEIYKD
Source text: as §1, §2

[3] = molecular target: T3, hPPAR gamma (Homo sapiens, UniProt P37231); details: read-out: EC50 μM HPPARγ
T3 construct: expressed in transfected cells; host or cells: CV-1 cells
T3 sequence (P37231 238-503 limits assumed): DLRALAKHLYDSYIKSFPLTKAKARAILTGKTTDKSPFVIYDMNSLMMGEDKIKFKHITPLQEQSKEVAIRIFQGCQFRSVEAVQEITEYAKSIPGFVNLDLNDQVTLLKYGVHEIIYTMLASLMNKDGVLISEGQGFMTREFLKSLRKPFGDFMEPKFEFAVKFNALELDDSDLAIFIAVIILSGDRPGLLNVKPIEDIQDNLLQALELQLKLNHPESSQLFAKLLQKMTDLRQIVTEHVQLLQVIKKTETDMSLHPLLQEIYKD
Source text: Compounds were screened for functional potency in transient transfection assays in CV-1 cells for their ability to activate the PPAR subtypes (transactivation assay). A previously established chimeric receptor system was utilized to allow comparison of the relative transcriptional activity of the receptor subtypes on the same target gene and to prevent endogenous receptor activation from complicating the interpretation of results. […] The ligand binding domains for murine and human PPAR alpha, PPAR gamma, and PPAR delta were each fused to the yeast transcription factor GAL4 DNA binding domain. CV-1 cells were transiently transfected with expression vectors for the respective PPAR chimera along with a reporter construct containing five copies of the GAL4 DNA binding site driving expression of secreted placental alkaline phosphatase (SPAP) and beta-galactosidase. After 16 h, the medium was exchanged to DME medium supplemented with 10% delipidated fetal calf serum and the test compound at the appropriate concentration. After an additional 24 h, cell extracts were prepared and assayed for alkaline phosphatase and β-galactosidase activity.

| Structure (SMILES) | EC50 [1] | EC50 [2] | EC50 [3] |
| --- | --- | --- | --- |
| COc1cc(CNC(=O)c2cc(-c3ccc(C(C)(C)C)cc3)nn2C)ccc1OC(C)(C)C(=O)O [Example 12, 2-{[4-{[({3-[4-(1,1-dimethylethyl)phenyl]-1-methyl-1H-prazol-5-yl}carbonyl)amino]methyl}-2-(methyloxy)phenyl]oxy}-2-methyl propanoic acid] | 1.05 µM | > 10 µM | 0.432 µM |
| CCn1nc(C(=O)NCc2ccc(OC(C)(C)C(=O)O)c(C)c2)cc1-c1ccc(C(C)(C)C)cc1 [Example 13, 2-[(4-{[({5-[4-(1,1-dimethylethyl)phenyl]-1-ethyl-1H-pyrazol-3-yl}carbonyl)amino]methyl}-2-methylphenyl)oxy]-2-methylpropanoic acid] | 0.009 µM | > 10 µM | 0.011 µM |
| COc1cc(CNC(=O)c2cc(-c3ccc(CC(C)C)cc3)n(C)n2)ccc1OC(C)(C)C(=O)O [Example 14] | 0.177 µM | > 10 µM | 0.13 µM |
| CCn1nc(-c2ccc(C(C)(C)C)cc2)cc1C(=O)NCc1ccc(OC(C)(C)C(=O)O)c(C)c1 [Example 15, 2-[(4-{[({3-[4-(1,1-dimethylethyl)phenyl]-1-ethyl-1H-pyrazol-5-yl}carbonyl)amino]methyl}-2-methylphenyl)oxy]-2-methyl propanoic acid] | 0.075 µM | 2.44 µM | 0.024 µM |
| Cc1cc(CNC(=O)c2cc(-c3ccc(C(C)C)cc3)n(C)n2)ccc1OC(C)(C)C(=O)O [Example 18] | 0.004 µM | 4.02 µM | 0.009 µM |
| Cc1cc(CNC(=O)c2cc(-c3ccc(N4CCCC4)cc3)n(C)n2)ccc1OC(C)(C)C(=O)O [Example 20, 2-methyl-2-[(2-methyl-4-{[({1-methyl-5-[4-(1-pyrrolidinyl)phenyl]-1H-pyrazol-3-yl}carbonyl)amino]methyl}phenyl)oxy]propanoic acid] | 0.076 µM | 1.06 µM | 0.02 µM |
| Cc1cc(CNC(=O)c2cc(-c3ccc(N4CCCCC4)cc3)n(C)n2)ccc1OC(C)(C)C(=O)O [Example 21] | 0.01 µM | 1.12 µM | 0.005 µM |
| Cc1cc(CNC(=O)c2cc(-c3cccc(N4CCCC4)c3)nn2C)ccc1OC(C)(C)C(=O)O [Example 23, 2-methyl-2-[(2-methyl-4-{[({1-methyl-3-[3-(1-pyrrolidinyl)phenyl]-1H-pyrazol 5-yl}carbonyl)amino]methyl}phenyl)oxy]propanoic acid] | 0.067 µM | 4.33 µM | 0.779 µM |
| Cc1cc(CNC(=O)c2cc(-c3ccc(C(C)(C)C)cc3)n(C)n2)cc(C)c1OC(C)(C)C(=O)O [Example 25, 2-{4-[({[5-(4-tert-butylphenyl)-1-methyl-1H-pyrazol-3-yl]carbonyl}amino)methyl]-2,6-dimethylphenoxy}-2-methylpropanoic acid] | 0.002 µM | > 25 µM | 0.008 µM |
| CCCCc1ccc(-c2cc(C(=O)NCc3ccc(OC(C)(C)C(=O)O)c(C)c3)nn2C)cc1 [Example 29, 2-((4-[({[5-(4-butylphenyl)-1-methyl-1H-pyrazol-3-yl]carbonyl}amino)methyl]-2-methylphenyl}oxy)-2-methylpropanoic acid] | 0.029 µM | > 25 µM | 0.014 µM |
| Cc1cc(CNC(=O)c2cc(-c3ccc(-c4ccccc4C)cc3)n(C)n2)ccc1OC(C)(C)C(=O)O [Example 31, 2-methyl-2-(2-methyl-4-[({[1-methyl-5-(2′-methylbiphenyl-4-yl)-1H-pyrazol-3-yl]carbonyl}amino)methyl]phenoxy}propanoic acid] | 0.093 µM | > 25 µM | 0.026 µM |
| Cc1cc(CNC(=O)c2cc(-c3ccc(N4CCOCC4)cc3)nn2C)ccc1OC(C)(C)C(=O)O [Example 39, 2-methyl-2-[(2-methyl-4-{[({1-methyl-3-[4-(4-morpholinyl)phenyl]-1H-pyrazol-5-yl}carbonyl)amino]methyl}phenyl)oxy]propanoic acid] | 1.06 µM | > 25 µM | 1.04 µM |
| Cc1cc(CNC(=O)c2cc(-c3cccc(N4CCCCC4)c3)n(C)n2)ccc1OC(C)(C)C(=O)O [Example 40, 2-methyl-2-[(2-methyl-4-{[({1-methyl-5-[3-(1-piperidinyl)phenyl]-1H-pyrazol-3-yl}carbonyl)amino]methyl}phenyl)oxy]propanoic acid] | 0.293 µM | 5.59 µM | 0.187 µM |
| Cc1cc(CNC(=O)c2cc(-c3cccc(N4CCCC4)c3)n(C)n2)ccc1OC(C)(C)C(=O)O [Example 41, 2-methyl-2-[(2-methyl-4-{[({1-methyl-5-[3-(1-pyrrolidinyl)phenyl]-1H-pyrazol-3-yl}carbonyl)amino]methyl}phenyl)oxy]propanoic acid] | 0.504 µM | > 25 µM | 0.151 µM |
| Cc1cc(CNC(=O)c2cc(-c3cccc(N4CCCCC4)c3)nn2C)ccc1OC(C)(C)C(=O)O [Example 42, 2-methyl-2-{2-methyl-4-[({[1-methyl-3-(3-piperidin-1-ylphenyl)-1H-pyrazol-5-yl]carbonyl}amino)methyl]phenoxy}propanoic acid] | 0.293 µM | > 25 µM | 1.66 µM |
| Cc1cc(CNC(=O)Cc2cc(-c3ccc(C(C)(C)C)cc3)nn2C)ccc1OC(C)(C)C(=O)O [Example 43, 2-[(4-{[({3-[4-(1,1-dimethylethyl)phenyl]-1-methyl-1H-pyrazol-5-yl}acetyl)amino]methyl}-2-methylphenyl)oxy]-2-methylpropanoic acid] | 0.257 µM | > 25 µM | 0.138 µM |
| Cc1cc(CNC(=O)Cc2cc(-c3ccc(C(C)(C)C)cc3)n(C)n2)ccc1OC(C)(C)C(=O)O [Example 44, 2-[(4-{[({5-[4-(1,1-dimethylethyl)phenyl]-1-methyl-1H-pyrazol-3-yl}acetyl)amino]methyl}-2-methylphenyl)oxy]-2-methylpropanoic acid] | 1.3 µM | > 25 µM | 0.006 µM |
| Cc1cc(CNC(=O)c2cc(-c3ccc(N4CCCCC4)cc3)nn2C)ccc1OC(C)(C)C(=O)O [Example 45] | 0.836 µM | > 25 µM | 0.049 µM |
| Cc1cc(CNC(=O)c2cc(Cc3ccc(C(C)(C)C)cc3)nn2C)ccc1OC(C)(C)C(=O)O [Example 46, 2-{[4-({[(3-{[4-(1,1-dimethylethyl)phenyl]methyl}-1-methyl-1H-pyrazol-5-yl)carbonyl]amino}methyl)-2-methylphenyl]oxy}-2-methylpropanoic acid] | 0.294 µM | > 25 µM | 0.353 µM |
